Laboratory results reported in patent US20090104214A1 (priority 2004, published 2009).

Columns and labels:
[1] = target: PA63-LF binding (Bacillus anthracis, UniProt P13423)
[2] = target: anthrax lethal toxin (PA83 and LF) (Bacillus anthracis, UniProt P13423); details: rat, in vivo, iv
[3] = system: J774A.1 cells incubated with PA83 and LF; type: cell-based, mouse
[4] = target: T1, PA63 (Bacillus anthracis, UniProt P13423)
[5] = target: LF (Bacillus anthracis, UniProt P15917)
[6] = target: purified recombinant PA83 (Bacillus anthracis, UniProt P13423)
[7] = target: T1, PA63; remark: listed apart in the source

T1 sequence (P13423 197-764 limits assumed): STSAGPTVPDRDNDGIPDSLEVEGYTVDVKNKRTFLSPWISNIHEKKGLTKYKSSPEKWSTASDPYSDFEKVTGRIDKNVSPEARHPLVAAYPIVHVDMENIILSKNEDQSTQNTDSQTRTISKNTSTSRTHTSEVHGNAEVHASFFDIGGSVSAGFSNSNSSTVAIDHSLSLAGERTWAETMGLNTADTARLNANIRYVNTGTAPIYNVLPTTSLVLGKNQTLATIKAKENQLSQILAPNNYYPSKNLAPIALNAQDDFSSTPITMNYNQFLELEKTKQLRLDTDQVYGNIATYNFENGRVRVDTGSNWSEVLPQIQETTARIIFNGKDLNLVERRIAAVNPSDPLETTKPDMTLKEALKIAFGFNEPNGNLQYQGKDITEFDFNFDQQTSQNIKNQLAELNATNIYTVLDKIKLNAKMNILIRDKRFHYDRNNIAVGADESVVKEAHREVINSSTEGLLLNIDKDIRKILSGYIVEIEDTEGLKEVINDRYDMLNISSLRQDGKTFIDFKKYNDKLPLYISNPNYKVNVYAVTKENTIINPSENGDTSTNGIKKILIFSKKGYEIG
Chain of PA63-LF binding (P13423 197-764 limits assumed): as above
Chain of anthrax lethal toxin (PA83 and LF) (P13423 197-764 limits assumed): as above
Chain of purified recombinant PA83 (P13423 30-764 limits assumed): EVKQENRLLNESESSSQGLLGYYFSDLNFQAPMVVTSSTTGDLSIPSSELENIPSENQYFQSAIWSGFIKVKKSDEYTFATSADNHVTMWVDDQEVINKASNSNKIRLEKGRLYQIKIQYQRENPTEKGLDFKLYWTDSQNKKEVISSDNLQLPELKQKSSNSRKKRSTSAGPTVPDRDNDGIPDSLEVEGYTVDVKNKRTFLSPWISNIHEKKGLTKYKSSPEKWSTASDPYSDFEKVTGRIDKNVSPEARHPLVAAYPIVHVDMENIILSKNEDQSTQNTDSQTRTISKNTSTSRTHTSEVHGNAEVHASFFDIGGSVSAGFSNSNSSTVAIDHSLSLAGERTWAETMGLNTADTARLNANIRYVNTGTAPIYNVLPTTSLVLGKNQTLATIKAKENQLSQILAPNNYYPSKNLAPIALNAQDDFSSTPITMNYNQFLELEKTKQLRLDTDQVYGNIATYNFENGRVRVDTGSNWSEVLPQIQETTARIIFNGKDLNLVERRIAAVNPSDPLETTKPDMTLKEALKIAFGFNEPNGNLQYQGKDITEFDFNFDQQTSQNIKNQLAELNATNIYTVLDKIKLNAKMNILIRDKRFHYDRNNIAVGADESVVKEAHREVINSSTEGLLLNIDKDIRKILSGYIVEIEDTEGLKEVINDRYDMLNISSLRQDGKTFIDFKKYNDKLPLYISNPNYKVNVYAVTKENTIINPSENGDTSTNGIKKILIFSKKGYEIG
Chain of LF (P15917 34-809 limits assumed): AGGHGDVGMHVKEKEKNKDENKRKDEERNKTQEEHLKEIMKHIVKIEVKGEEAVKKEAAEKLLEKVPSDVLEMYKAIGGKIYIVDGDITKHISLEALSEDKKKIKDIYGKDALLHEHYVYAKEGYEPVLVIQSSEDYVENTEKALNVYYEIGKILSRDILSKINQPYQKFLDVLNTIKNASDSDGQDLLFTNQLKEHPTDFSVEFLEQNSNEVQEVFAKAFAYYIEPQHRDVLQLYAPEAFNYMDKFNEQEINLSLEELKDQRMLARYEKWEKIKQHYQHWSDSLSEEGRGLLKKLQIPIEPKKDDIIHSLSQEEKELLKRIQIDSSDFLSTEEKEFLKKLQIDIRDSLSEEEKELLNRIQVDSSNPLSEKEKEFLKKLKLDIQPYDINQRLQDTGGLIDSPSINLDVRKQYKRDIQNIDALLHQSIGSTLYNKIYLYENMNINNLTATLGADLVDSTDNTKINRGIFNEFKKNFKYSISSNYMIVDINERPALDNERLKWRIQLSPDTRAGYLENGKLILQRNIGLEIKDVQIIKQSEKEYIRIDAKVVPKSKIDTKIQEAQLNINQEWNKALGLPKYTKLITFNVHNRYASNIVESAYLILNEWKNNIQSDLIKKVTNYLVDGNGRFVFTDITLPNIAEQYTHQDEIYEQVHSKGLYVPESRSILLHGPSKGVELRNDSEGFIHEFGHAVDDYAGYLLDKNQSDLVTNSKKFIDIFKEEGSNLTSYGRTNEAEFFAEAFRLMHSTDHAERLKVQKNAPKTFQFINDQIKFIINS

Substance	effective in blocking the interaction of PA with LF (summary statement) [1]	inhibition of PA63-LF binding in ELISA, substitution of position 2 of MAP 3 [1]	further results
AVMTYWWLDPPL	Particularly effective	–	inhibition of PA63-LF binding in ELISA, alanine scanning of MAP3 [1]: better efficiency
NAMTYWWLDPPL [MAP3V/A]	Particularly effective	–	neutralization of lethal toxin toxicity in rats [2]: completely neutralized toxicity; IC50 for inhibition of PA83/LF-induced cell mortality, compared with MAP3 [3]: one log lower than that of MAP3; inhibition of PA63-LF binding in ELISA, alanine scanning of MAP3 [1]: better efficiency
NDMTYWWLDPPL	Particularly effective	good efficiency	–
NEMTYWWLDPPL	Particularly effective	good efficiency	–
NGMTYWWLDPPL	Particularly effective	good efficiency	–
NNMTYWWLDPPL	Particularly effective	good efficiency	–
NPMTYWWLDPPL	Particularly effective	good efficiency	–
NQMTYWWLDPPL	Particularly effective	good efficiency	–
NSMTYWWLDPPL	Particularly effective	good efficiency	–
NTMTYWWLDPPL	Particularly effective	good efficiency	–
NVMTYWWLAPPL	Particularly effective	–	inhibition of PA63-LF binding in ELISA, alanine scanning of MAP3 [1]: better efficiency
NVMTYWWLDPPA	Particularly effective	–	inhibition of PA63-LF binding in ELISA, alanine scanning of MAP3 [1]: better efficiency
NVMTYWWLDPPL [MAP3]	Particularly effective	–	neutralization of lethal toxin toxicity in rats [2]: completely neutralized toxicity; binding to PA63 in ELISA [4]: specifically bound; IC50 of inhibition of PA63-LF binding in ELISA, compared with MAP2 [1]: about one log lower than that of MAP2; binding to LF in ELISA [5]: did not bind; binding to purified recombinant PA83 in ELISA [6]: did not bind
NVMTYWWLDPPL [p3]	–	–	equilibrium association constant KA of peptide-PA63 binding [7]: 3.4e+07 M⁻¹; koff [7]: 0.0004 s⁻¹; kon [7]: 14000 M⁻¹ s⁻¹
NYMTYWWLDPPL	Particularly effective	good efficiency	–
TLAYWWLTPSNP	Particularly effective	–	–
TLPYWWLTPSNP [MAP2]	Particularly effective	–	binding to PA63 in ELISA [4]: specifically bound; binding to LF in ELISA [5]: did not bind; binding to purified recombinant PA83 in ELISA [6]: did not bind
TLPYWWLTPSNP [p2]	–	–	equilibrium association constant KA of peptide-PA63 binding [7]: 7.2e+06 M⁻¹; koff [7]: 0.0007 s⁻¹; kon [7]: 5000 M⁻¹ s⁻¹
YWWLDPP	Particularly effective	–	–
YWWLEPP	Particularly effective	–	–
YWWLHPP	Particularly effective	–	–
YWWLKPP	Particularly effective	–	–
YWWLQPP	Particularly effective	–	–
YWWLTP	–	–	inhibition of PA63-LF binding in ELISA, shortening of MAP2 and re-elongation of YWWLTP [1]: minimal sequence able to inhibit PA-LF binding
YWWLTPP	Particularly effective	–	inhibition of PA63-LF binding in ELISA, shortening of MAP2 and re-elongation of YWWLTP [1]: superior inhibitory efficiency
YWWLTPPA	Particularly effective	–	inhibition of PA63-LF binding in ELISA, shortening of MAP2 and re-elongation of YWWLTP [1]: even better efficiency
YWWLTPPP [8mer peptide YWWLTPPP]	–	–	KA fold higher than that of lead 12mer p2 [7]: about 10 fold; equilibrium association constant KA of peptide-PA63 binding [7]: 6.8e+07 M⁻¹; koff [7]: 0.0013 s⁻¹; kon [7]: 88000 M⁻¹ s⁻¹
YWWLTPPP [MAP YWWLTPPP]	Particularly effective	–	neutralization of lethal toxin toxicity in rats [2]: completely neutralized toxicity; inhibition of PA63-LF binding in ELISA, shortening of MAP2 and re-elongation of YWWLTP [1]: even better efficiency
YWWLTPPQ	Particularly effective	–	inhibition of PA63-LF binding in ELISA, shortening of MAP2 and re-elongation of YWWLTP [1]: even better efficiency
